# Test results: patent US20240041042A1, “1-(PYRIDYL)-5-AZINYLPYRAZOLE DERIVATIVES, AND THEIR USE FOR CONTROL OF UNDESIRED PLANT GROWTH” (Bayer Aktiengesellschaft, priority 2020, published 2024)
# Like-named read-outs stand apart in the source and are kept apart here.
# Legend:
# Assay type in all cases: in vivo
# [1] = tested on: Alopecurus myosuroides (ALOMY); assay: Pre-emergence herbicidal action against ALOMY; details: 320 g/ha; scored visually after about 3 weeks; 100% = plants have died
# Summary of the method: (§1)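 Application rates ran to 320 g/ha or lower, with several dosages tested on the same weeds. The compound, as wettable powder or emulsion concentrate, is sprayed pre-emergence onto soil over sown seeds; greenhouse growth follows, and effect is rated visually after roughly 3 weeks.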
# Oryza sativa (ORYSA) [2] = details: crop plant compatibility, effect in comparison to untreated controls
# Summary of the method: (§2)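 One-leaf-stage crops (2–3 wk post-sowing, sandy loam, greenhouse) sprayed on green parts; 0.5% additive, 600 l/ha water. Rated by eye ~3 wk later, % vs untreated; suffixes a/b/c mark different dosages.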
# Zea mays (ZEAMX) [3] = details: crop plant compatibility, effect vs untreated controls
# Summary of the method: as §2
# [4] = tested on: Triticum aestivum (TRZAS); details: crop plant compatibility, effect vs untreated controls
# Summary of the method: as §2
# Brassica napus (BRSNW) = details: crop plant compatibility, in comparison to untreated controls
# Summary of the method: (§3)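 Crop injury rated visually in percent against untreated plants roughly 3 weeks after treatment (0% no effect, 100% plants dead). Compounds, as WP or EC with 0.5% additive in 600 l/ha water, were applied to the covering soil right after sowing; greenhouse growth. Suffixes a, b, c denote different dosages.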
# Oryza sativa (ORYSA) [5] = details: pre-emergence, crop plant compatibility, in comparison to untreated controls
# Summary of the method: as §3
# Zea mays (ZEAMX) [6] = details: pre-emergence, crop plant compatibility, in comparison to untreated controls
# Summary of the method: as §3
# [7] = tested on: Triticum aestivum (TRZAS); details: pre-emergence, crop plant compatibility, in comparison to untreated controls
# Summary of the method: as §3
# [8] = tested on: Abutilon theophrasti (ABUTH); assay: Post-emergence herbicidal action against ABUTH; details: 320 g/ha, visual rating about 3 weeks after treatment vs untreated controls (100% = plants have died, 0% = like control plants)
# Summary of the method: (§4)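 Rates were 320 g/ha or below, applied as aqueous WP/EC spray with 0.5% additive (600 l/ha) onto one-leaf-stage plants. About 3 weeks later in the greenhouse, damage was scored visually against untreated plants on a 0–100% scale, where 100% means plants died.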
# Avena fatua (AVEFA) [9] = assay: Post-emergence herbicidal action against AVEFA; details: visual rating about 3 weeks after treatment
# Summary of the method: as §4
# Viola tricolor (VIOTR) [10] = assay: Post-emergence herbicidal action against VIOTR; details: 320 g/ha
# Summary of the method: as §4
# Setaria viridis (SETVI) [11] = assay: Post-emergence herbicidal action against SETVI; details: dosage 320 g/ha
# Summary of the method: as §4
# [12] = tested on: Polygonum convolvulus (POLCO); assay: Pre-emergence herbicidal action against POLCO; details: dosage 320 g/ha
# Summary of the method: as §1
# [13] = tested on: Amaranthus retroflexus (AMARE); assay: Pre-emergence herbicidal action against AMARE; details: 320 g/ha, visual scoring after about 3 weeks vs untreated controls
# Summary of the method: as §1
# Lolium rigidum (LOLRI) = assay: Post-emergence herbicidal action against LOLRI; details: dosage 320 g/ha
# Summary of the method: as §4
# [14] = tested on: Echinochloa crus-galli (ECHCG); assay: Post-emergence herbicidal action against ECHCG
# Summary of the method: as §4
# [15] = tested on: Alopecurus myosuroides (ALOMY); assay: Post-emergence herbicidal action against ALOMY; details: 320 g/ha, visual rating about 3 weeks after treatment vs untreated controls (100% = plants have died, 0% = like control plants)
# Summary of the method: as §4
# Avena fatua (AVEFA) [16] = assay: Pre-emergence herbicidal action against AVEFA; details: 320 g/ha, visual scoring after about 3 weeks vs untreated controls
# Summary of the method: as §1
# [17] = tested on: Verconica persica (VERPE); assay: Post-emergence herbicidal action against VERPE; details: 320 g/ha, VERPE
# Summary of the method: as §4
# [18] = tested on: Polygonum convolvulus (POLCO); assay: Post-emergence herbicidal action against POLCO
# Summary of the method: as §4
# Viola tricolor (VIOTR) [19] = assay: Pre-emergence herbicidal action against VIOTR
# Summary of the method: as §1
# [20] = tested on: Amaranthus retroflexus (AMARE); assay: Post-emergence herbicidal action against AMARE
# Summary of the method: as §4
# Setaria viridis (SETVI) [21] = assay: Pre-emergence herbicidal action against SETVI; details: dosage 320 g/ha
# Summary of the method: as §1
# [22] = 320 g/ha, visual rating about 3 weeks after treatment
smiles,measurement,setting,value
CC(=O)CNC(=O)COc1nn(-c2ccnc(F)c2)c(-c2ccc(F)nc2)c1Br [III-07],Pre-emergence action against ALOMY,[1],80%
same,Post-emergence action against ORYSA in %,Oryza sativa (ORYSA) [2]; 80 g/ha,0%
same,Post-emergence action against ORYSA in %,Oryza sativa (ORYSA) [2]; 320 g/ha,0%
same,Post-emergence action against ZEAMX in %,Zea mays (ZEAMX) [3]; 80 g/ha,0%
same,Post-emergence action against ZEAMX in %,Zea mays (ZEAMX) [3]; 320 g/ha,0%
same,Post-emergence action against TRZAS in %,[4]; 80 g/ha,0%
same,Pre-emergence action against BRSNW in %,Brassica napus (BRSNW); 80 g/ha,0%
same,Pre-emergence action against ORYSA in %,Oryza sativa (ORYSA) [5]; 80 g/ha,0%
same,Pre-emergence action against ORYSA in %,Oryza sativa (ORYSA) [5]; 320 g/ha,20%
same,Pre-emergence action against ZEAMX in %,Zea mays (ZEAMX) [6]; 80 g/ha,0%
same,Pre-emergence action against ZEAMX in %,Zea mays (ZEAMX) [6]; 320 g/ha,10%
same,Pre-emergence action against TRZAS in %,[7]; 80 g/ha,0%
same,Pre-emergence action against TRZAS in %,[7]; 320 g/ha,0%
same,Post-emergence action against ABUTH in %,[8],80%
O=C(O)COc1nn(-c2ncccc2Cl)c(-c2ccc(F)nc2)c1Br [Example I-26],Post-emergence action against AVEFA in %,Avena fatua (AVEFA) [9]; 80 g/ha,100%
same,Post-emergence action against AVEFA in %,Avena fatua (AVEFA) [9]; 320 g/ha,100%
same,Post-emergence action against VIOTR in %,Viola tricolor (VIOTR) [10],80%
same,Pre-emergence action against ALOMY,[1],100%
same,Post-emergence action against SETVI in %,Setaria viridis (SETVI) [11],90%
same,Pre-emergence action against POLCO in %,[12],90%
same,Pre-emergence action against AMARE in %,[13],100%
same,Post-emergence action against LOLRI in %,Lolium rigidum (LOLRI),80%
same,Post-emergence action against ZEAMX in %,Zea mays (ZEAMX) [3]; 80 g/ha,0%
same,Post-emergence action against ECHCG in %,[14]; dosage 80 g/ha,80%
same,Post-emergence action against ECHCG in %,[14]; dosage 320 g/ha,80%
same,Post-emergence action against ALOMY in %,[15],90%
same,Pre-emergence action against AVEFA in %,Avena fatua (AVEFA) [16],90%
same,Pre-emergence action against BRSNW in %,Brassica napus (BRSNW); 80 g/ha,20%
same,Pre-emergence action against ORYSA in %,Oryza sativa (ORYSA) [5]; 80 g/ha,0%
same,Pre-emergence action against ZEAMX in %,Zea mays (ZEAMX) [6]; 80 g/ha,0%
same,Pre-emergence action against TRZAS in %,[7]; 80 g/ha,0%
same,Post-emergence action against VERPE in %,[17],80%
same,Post-emergence action against POLCO in %,[18]; dosage 80 g/ha,80%
same,Post-emergence action against POLCO in %,[18]; dosage 320 g/ha,80%
same,Post-emergence action against ABUTH in %,[8],90%
same,Pre-emergence action against VIOTR in %,"Viola tricolor (VIOTR) [19]; 320 g/ha, Viola tricolor",100%
same,Pre-emergence action against VIOTR in %,Viola tricolor (VIOTR) [19]; dosage 80 g/ha,100%
same,Post-emergence action against AMARE in %,"[20]; 80 g/ha, visual rating about 3 weeks after treatment vs untreated controls (100% = plants have died, 0% = like control plants)",80%
same,Post-emergence action against AMARE in %,[20]; [22],80%
same,Pre-emergence action against SETVI in %,Setaria viridis (SETVI) [21],100%
O=C(O)C1CCN(C(=O)COc2nn(-c3ccccn3)c(-c3cncc(F)c3)c2Br)C1 (racemic) [Example I-63],Post-emergence action against ORYSA in %,Oryza sativa (ORYSA) [2]; 80 g/ha,0%
same,Post-emergence action against ORYSA in %,Oryza sativa (ORYSA) [2]; 320 g/ha,10%
same,Post-emergence action against ZEAMX in %,Zea mays (ZEAMX) [3]; 80 g/ha,0%
same,Post-emergence action against ZEAMX in %,Zea mays (ZEAMX) [3]; 320 g/ha,10%
same,Post-emergence action against TRZAS in %,[4]; 80 g/ha,0%
same,Post-emergence action against TRZAS in %,[4]; 320 g/ha,0%
same,Pre-emergence action against BRSNW in %,Brassica napus (BRSNW); 80 g/ha,0%
same,Pre-emergence action against BRSNW in %,Brassica napus (BRSNW); 320 g/ha,20%
same,Pre-emergence action against ORYSA in %,Oryza sativa (ORYSA) [5]; 80 g/ha,0%
same,Pre-emergence action against ORYSA in %,Oryza sativa (ORYSA) [5]; 320 g/ha,0%
same,Pre-emergence action against ZEAMX in %,Zea mays (ZEAMX) [6]; 80 g/ha,10%
same,Pre-emergence action against ZEAMX in %,Zea mays (ZEAMX) [6]; 320 g/ha,10%
same,Pre-emergence action against TRZAS in %,[7]; 80 g/ha,0%
same,Pre-emergence action against TRZAS in %,[7]; 320 g/ha,0%
CCOC(=O)COc1nn(-c2ccnc(F)c2)c(-c2ccc(F)nc2)c1Br [III-01],Post-emergence action against AVEFA in %,Avena fatua (AVEFA) [9]; 320 g/ha,80%
same,Post-emergence action against VIOTR in %,Viola tricolor (VIOTR) [10],80%
same,Post-emergence action against ORYSA in %,Oryza sativa (ORYSA) [2]; 80 g/ha,0%
same,Post-emergence action against ORYSA in %,Oryza sativa (ORYSA) [2]; 320 g/ha,0%
same,Post-emergence action against ZEAMX in %,Zea mays (ZEAMX) [3]; 80 g/ha,0%
same,Post-emergence action against ZEAMX in %,Zea mays (ZEAMX) [3]; 320 g/ha,0%
same,Post-emergence action against TRZAS in %,[4]; 80 g/ha,0%
same,Post-emergence action against ECHCG in %,[14]; dosage 320 g/ha,80%
same,Pre-emergence action against BRSNW in %,Brassica napus (BRSNW); 80 g/ha,0%
same,Pre-emergence action against ORYSA in %,Oryza sativa (ORYSA) [5]; 80 g/ha,0%
same,Pre-emergence action against ORYSA in %,Oryza sativa (ORYSA) [5]; 320 g/ha,0%
same,Pre-emergence action against ZEAMX in %,Zea mays (ZEAMX) [6]; 80 g/ha,10%
same,Pre-emergence action against ZEAMX in %,Zea mays (ZEAMX) [6]; 320 g/ha,20%
same,Pre-emergence action against TRZAS in %,[7]; 80 g/ha,0%
same,Post-emergence action against VERPE in %,[17],80%
same,Post-emergence action against AMARE in %,[20]; [22],80%
